Molecules are shown by their SMILES. Structures can show the parent of a compound that is named as a salt. Where two headings read alike, the source gives them in different places.

The target in data set [1] is T1, MMP-2 (Homo sapiens, UniProt P08253).
T1 sequence (P08253 110-660): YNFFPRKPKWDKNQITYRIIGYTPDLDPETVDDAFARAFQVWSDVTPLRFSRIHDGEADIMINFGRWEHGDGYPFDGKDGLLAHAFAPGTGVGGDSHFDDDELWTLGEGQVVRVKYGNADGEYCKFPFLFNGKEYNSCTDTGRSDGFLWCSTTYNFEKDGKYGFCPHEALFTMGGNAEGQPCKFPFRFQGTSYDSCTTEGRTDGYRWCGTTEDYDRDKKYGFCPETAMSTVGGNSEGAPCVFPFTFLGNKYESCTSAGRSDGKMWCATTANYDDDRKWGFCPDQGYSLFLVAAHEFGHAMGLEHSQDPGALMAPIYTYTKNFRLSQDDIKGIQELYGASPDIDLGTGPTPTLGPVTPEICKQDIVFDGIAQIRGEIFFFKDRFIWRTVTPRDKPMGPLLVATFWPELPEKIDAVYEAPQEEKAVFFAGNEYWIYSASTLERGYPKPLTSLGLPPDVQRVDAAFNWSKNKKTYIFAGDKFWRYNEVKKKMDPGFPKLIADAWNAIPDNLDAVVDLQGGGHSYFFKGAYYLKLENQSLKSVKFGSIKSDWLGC

For another data set, the target named is T2, MMP-1 (Homo sapiens, UniProt P03956).
T2 sequence (P03956 100-469): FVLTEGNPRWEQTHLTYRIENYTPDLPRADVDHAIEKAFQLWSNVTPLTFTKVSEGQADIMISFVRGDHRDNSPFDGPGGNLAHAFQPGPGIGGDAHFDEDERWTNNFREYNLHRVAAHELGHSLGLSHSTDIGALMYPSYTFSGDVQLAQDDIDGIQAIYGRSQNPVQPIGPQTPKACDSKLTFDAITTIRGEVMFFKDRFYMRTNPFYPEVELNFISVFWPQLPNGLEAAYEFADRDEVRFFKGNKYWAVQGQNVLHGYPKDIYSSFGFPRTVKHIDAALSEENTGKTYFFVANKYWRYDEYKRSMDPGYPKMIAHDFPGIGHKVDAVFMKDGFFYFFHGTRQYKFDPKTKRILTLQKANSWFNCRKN
The experiment in a line: MMP inhibition fluorometric assay, MMP-1. The note with it: for ΔG exp MMP-1: experimental binding energy from activity data, racemic mixture tested.

For a further data set, the target named is MMP-8 (Homo sapiens, UniProt P22894). Briefly: MMP inhibition fluorometric assay, MMP-8. As to conditions: for ΔG exp MMP-8: experimental binding energy from activity data, racemic mixture tested.
In another data set the target is MMP-9 (Homo sapiens, UniProt P14780). Briefly: MMP inhibition fluorometric assay, MMP-9. The note with it: for ΔG exp MMP-9: experimental binding energy from activity data, racemic mixture tested.
Data set [2] has as its target T1, MMP-2. The experiment in a line: biochemical.
Where [3] appears, read: experimental binding energy from activity data, chiral compounds tested as racemic mixture.
The mark [4] stands for this setting: ratio of IC50 values versus 25a.

Chain of MMP-8 (P22894 101-467): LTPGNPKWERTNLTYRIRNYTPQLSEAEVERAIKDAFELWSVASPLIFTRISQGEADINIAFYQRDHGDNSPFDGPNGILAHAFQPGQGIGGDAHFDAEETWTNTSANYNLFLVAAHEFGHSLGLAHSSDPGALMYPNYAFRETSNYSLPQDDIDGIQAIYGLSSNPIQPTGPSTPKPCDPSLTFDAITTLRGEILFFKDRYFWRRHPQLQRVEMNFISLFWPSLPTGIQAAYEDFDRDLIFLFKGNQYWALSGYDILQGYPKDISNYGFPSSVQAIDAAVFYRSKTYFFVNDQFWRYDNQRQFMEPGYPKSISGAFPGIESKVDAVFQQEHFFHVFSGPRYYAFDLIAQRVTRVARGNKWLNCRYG
Chain of MMP-9 (P14780 107-707 limits assumed): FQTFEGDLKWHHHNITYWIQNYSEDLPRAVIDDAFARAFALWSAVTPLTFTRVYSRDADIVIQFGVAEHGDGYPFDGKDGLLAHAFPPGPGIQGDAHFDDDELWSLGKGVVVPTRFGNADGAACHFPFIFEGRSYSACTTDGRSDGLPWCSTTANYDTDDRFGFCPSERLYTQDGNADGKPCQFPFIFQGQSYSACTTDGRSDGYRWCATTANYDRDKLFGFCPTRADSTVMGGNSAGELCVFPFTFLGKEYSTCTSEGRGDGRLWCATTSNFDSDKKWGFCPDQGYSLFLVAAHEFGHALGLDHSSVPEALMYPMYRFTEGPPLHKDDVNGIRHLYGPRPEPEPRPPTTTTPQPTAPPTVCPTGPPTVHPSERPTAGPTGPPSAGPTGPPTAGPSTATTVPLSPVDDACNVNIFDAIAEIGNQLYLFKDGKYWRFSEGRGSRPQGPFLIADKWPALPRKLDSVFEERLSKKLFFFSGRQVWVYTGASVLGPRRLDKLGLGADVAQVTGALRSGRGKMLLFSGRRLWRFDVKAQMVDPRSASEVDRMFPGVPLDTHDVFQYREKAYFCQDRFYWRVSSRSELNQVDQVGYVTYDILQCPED

The molecule `NC(CS)Cc1c[nH]cn1` (centres unmarked) (as salt: TFA) [Compound 1g] came in with a melting point of 196 to 198 °C.

For the molecule `O=S(=O)(N[C@H](CO)CS)c1ccc(Oc2ccccc2)cc1` (racemic) [25d R], the “ΔG exp (binding energy toward MMP-2)” value on MMP-2 [1] (setting [3]) was -5.396 kcal. Besides, on MMP-1, the “ΔG exp MMP-1” value was -4.224 kcal. The “ΔG exp MMP-8” value on MMP-8 is -6.870 kcal. Moreover, the “ΔG exp MMP-9” value on MMP-9 was -6.705 kcal.

For the molecule `Cl.O=S(=O)(N[C@@H](CO)Cc1c[nH]cn1)c1ccc(Oc2ccccc2)cc1` (racemic) [25e R], the “ΔG exp (binding energy toward MMP-2)” value on MMP-2 [1] (setting [3]) was -5.069 kcal. For the same molecule, the “ΔG exp MMP-1” value on MMP-1 was -4.524 kcal. Also, at MMP-8, the “ΔG exp MMP-8” value is -4.740 kcal. In addition, the “ΔG exp MMP-9” value on MMP-9 was -5.042 kcal.

Take `N[C@H](CO)CS.O=C(O)C(F)(F)F` [1d R]: the “ΔG exp (binding energy toward MMP-2)” value at MMP-2 [1] (setting [3]) is -4.319 kcal.

On to `N[C@@H](CO)CS.O=C(O)C(F)(F)F` [1d S], for which the “ΔG exp (binding energy toward MMP-2)” value at MMP-2 [1] (setting [3]) was -4.319 kcal.

Regarding `N[C@@H](CO)Cc1c[nH]cn1.O=C(O)C(F)(F)F.O=C(O)C(F)(F)F` [1e R], on MMP-2 [1] (setting [3]), the “ΔG exp (binding energy toward MMP-2)” value is -4.565 kcal.

For `N[C@H](CO)Cc1c[nH]cn1.O=C(O)C(F)(F)F.O=C(O)C(F)(F)F` [1e S], the “ΔG exp (binding energy toward MMP-2)” value at MMP-2 [1] (setting [3]) is -4.565 kcal.

Take `N#CC[C@@H](N)CS.O=C(O)C(F)(F)F` [1h R]: on MMP-2 [1] (setting [3]), the “ΔG exp (binding energy toward MMP-2)” value is -4.497 kcal.

As for `N#CC[C@H](N)CS.O=C(O)C(F)(F)F` [1h S], the “ΔG exp (binding energy toward MMP-2)” value at MMP-2 [1] (setting [3]) is -4.497 kcal.

With `N#CC[C@@H](N)CO.O=C(O)C(F)(F)F` [1i R], the “ΔG exp (binding energy toward MMP-2)” value at MMP-2 [1] (setting [3]) is -4.210 kcal.

In the case of `N#CC[C@H](N)CO.O=C(O)C(F)(F)F` [1i S], the “ΔG exp (binding energy toward MMP-2)” value at MMP-2 [1] (setting [3]) is -4.210 kcal.

With `O=C(O)C(F)(F)F.O=C(O)C(F)(F)F.[N-]=[N+]=NC[C@H](N)Cc1c[nH]cn1` [1l R], the “ΔG exp (binding energy toward MMP-2)” value on MMP-2 [1] (setting [3]) is -4.524 kcal.

With `O=C(O)C(F)(F)F.O=C(O)C(F)(F)F.[N-]=[N+]=NC[C@@H](N)Cc1c[nH]cn1` [1l S], on MMP-2 [1] (setting [3]), the “ΔG exp (binding energy toward MMP-2)” value is -4.524 kcal.

As to `O=S(=O)(N[C@@H](CO)CS)c1ccc(Oc2ccccc2)cc1` [25d S], at MMP-2 [1] (setting [3]), the “ΔG exp (binding energy toward MMP-2)” value was -5.396 kcal. Further, the “ΔG exp MMP-1” value at MMP-1 is -4.224 kcal. The “ΔG exp MMP-8” value on MMP-8 is -6.870 kcal. The “ΔG exp MMP-9” value on MMP-9 is -6.705 kcal.

`Cl.O=S(=O)(N[C@H](CO)Cc1c[nH]cn1)c1ccc(Oc2ccccc2)cc1` [25e S]: at MMP-2 [1] (setting [3]), the “ΔG exp (binding energy toward MMP-2)” value was -5.069 kcal. The “ΔG exp MMP-1” value on MMP-1 is -4.524 kcal. Further, the “ΔG exp MMP-8” value at MMP-8 is -4.740 kcal. Also, on MMP-9, the “ΔG exp MMP-9” value is -5.042 kcal.

With `CC(=O)NO` [AHA, acetohydroxamic acid, reference compound], on MMP-2 [1] (read-out: IC50 (μM ± SD), enzymatic inhibition of MMP-2, catalytic domain of MMP-2, ZBG library, value ± SD), the IC50 is 10000 ± 630 µM.

`NC(CO)CO` [Compound 1a, 2-aminopropane-1,3-diol]: the “ΔG exp (binding energy toward MMP-2)” value at MMP-2 [1] (setting [3]) was -4.837 kcal. On MMP-2 [2], this molecule gave an IC50 of 280 ± 24 µM.

For the molecule `N#CCC(N)CC#N.O=C(O)C(F)(F)F` [Compound 1b, 3-Aminopentanedinitrile Trifluoroacetate], the “ΔG exp (binding energy toward MMP-2)” value at MMP-2 [1] is -4.428 kcal. The same molecule came in with a 50% inhibitory concentration (IC50) at MMP-2 [2] of 560 ± 52 µM.

As to `NC(CO)CS` (centres unmarked) [Compound 1d, 2-Amino-3-mercaptopropan-1-ol Trifluoroacetate], half-maximal inhibition against MMP-2 [2] (IC50) required 674 ± 88 µM.

Molecule `NC(CO)Cc1c[nH]cn1` (centres unmarked) [Compound 1e, 2-Amino-3-(1H-imidazol-4-yl)propan-1-ol Ditrifluoroacetate] came in with a half-inhibitory concentration (IC50) against MMP-2 [2] of 450 ± 23 µM.

For the molecule `NC(CS)CS.O=C(O)C(F)(F)F` [Compound 1f, 2-Aminopropane-1,3-dithiol Trifluoroacetate], at MMP-2 [1], the “ΔG exp (binding energy toward MMP-2)” value was -4.333 kcal. Further, 666 ± 90 µM corresponded to half-maximal inhibition at MMP-2 [2] (IC50).

On MMP-2 [2], `N#CCC(N)CS` (centres unmarked) [Compound 1h, 3-Amino-4-mercaptobutanenitrile Trifluoroacetate] yielded an IC50 of 500 ± 49 µM.

Turning to `N#CCC(N)CO.O=C(O)C(F)(F)F` (centres unmarked) [Compound 1i, 3-Amino-4-hydroxybutanenitrile Trifluoroacetate], the melting point lay in the range of 131 to 133 °C. This molecule also yielded a half-inhibitory concentration (IC50) at MMP-2 [2] of 807 ± 98 µM.

Regarding `[N-]=[N+]=NCC(N)CS` (centres unmarked) [Compound 1j, 2-Amino-3-azidopropane-1-thiol Trifluoroacetate], on MMP-2 [2], the midpoint of inhibition, the IC50, lay at 520 ± 57 µM.

Turning to `[N-]=[N+]=NCC(N)Cc1c[nH]cn1` (centres unmarked) [Compound 1l, 1-Azido-3-(1H-imidazol-4-yl)propan-2-amine Ditrifluoroacetate], the IC50 on MMP-2 [2] came out at 480 ± 25 µM.

In the case of `O=S(=O)(NC(CO)CO)c1ccc(Oc2ccccc2)cc1` [Compound 25a, N-(1,3-Dihydroxypropan-2-yl)-4-phenoxybenzenesulfonamide], the “ΔG exp (binding energy toward MMP-2)” value at MMP-2 [1] (setting [3]) is -5.655 kcal. The IC50 against MMP-2 [2] is 71 ± 1.9 µM; at MMP-1, 1030 ± 160 µM; against MMP-8, 98 ± 8 µM; on MMP-9, 160 ± 15 µM. Moreover, the “ΔG exp MMP-1” value at MMP-1 is -4.074 kcal. Besides, the “ΔG exp MMP-8” value on MMP-8 is -5.460 kcal. Further, the “ΔG exp MMP-9” value at MMP-9 was -5.178 kcal.

Consider `O=S(=O)(NC(CO)CS)c1ccc(Oc2ccccc2)cc1` (centres unmarked) [Compound 25d, N-(1-Hydroxy-3-mercaptopropan-2-yl)-4-phenoxybenzenesulfonamide], for which the IC50 against MMP-2 [2] came to 110 ± 10 µM; against MMP-1, 819 ± 116 µM; against MMP-8 it was 9.1 ± 2.3 µM; against MMP-9 it was 12 ± 4 µM. Besides, the “fold more potent than 25a on MMP-8” value at MMP-8 (setting [4]) turned out to be 10 fold. The “fold more potent than 25a on MMP-9” value on MMP-9 (setting [4]) stood at 13 fold.

On to `O=S(=O)(NC(CO)Cc1c[nH]cn1)c1ccc(Oc2ccccc2)cc1` (centres unmarked) [Compound 25e, N-(1-Hydroxy-3-(1H-imidazol-4-yl)propan-2-yl)-4-phenoxybenzenesulfonamide Hydrochloride], for which the IC50 at MMP-2 [2] worked out at 190 ± 8.7 µM; on MMP-1, 480 ± 30 µM; against MMP-8, 330 ± 21 µM; against MMP-9 it was 200 ± 15 µM.

For the origin of these results see paper PMC3608355, “Amino Acid Derivatives as New Zinc Binding Groups for the Design of Selective Matrix Metalloproteinase Inhibitors” (Journal of Amino Acids, 2013).
